system: not listed separately; experiment: logP determination by HPLC (reversed-phase C 18), EEC Directive 79/831 Annex V.A8; assay type: physicochemical; conditions: pH 2.3
Experimental: The stated logP values were determined in accordance with EEC Directive 79/831 Annex V.A8 by HPLC (High Performance Liquid Chromatography), using a reversed-phase column (C 18). Temperature: 43° C.
In the acidic range, the determination was carried out at pH 2.3 using the mobile phases 0.1% aqueous phosphoric acid and acetonitrile; linear gradient from 10% acetonitrile to 90% acetonitrile.
In the neutral range, the determination was carried out at pH 7.5 using the mobile phases 0.01 molar aqueous phosphate buffer solution and acetonitrile; linear gradient from 10% acetonitrile to 90% acetonitrile.
Calibration was carried out using unbranched alkan-2-ones (having 3 to 16 carbon atoms) with known logP values (determination of the logP values by the retention times using linear interpolation between two successive alkanones).

SMILES | chromatographic logP
Fc1cccc(F)c1C1=NC(c2ccc(Cl)nc2)CC1 (stereo not drawn) [Example 9, 2-(6-chloro-3-pyridinyl)-5-(2,6-difluorophenyl)-3,4-dihydro-2H-pyrrole] | 1.93

same assay, conditions: pH 2.3; HPLC, 0.1% aqueous phosphoric acid/acetonitrile; 43° C.; read-out: log P (pH 2.3)

SMILES | chromatographic logP
CC(C)(C)OC(=O)NC(CCC(=O)c1c(F)cccc1F)c1cccs1 (stereo not drawn) [II-2] | 4.48
CC(C)(C)OC(=O)NC(CCC(=O)c1c(F)cccc1F)c1sccc1Cl (stereo not drawn) [II-3] | 4.28

same assay, conditions: reversed-phase C18 HPLC column; pH 2.3; HPLC, 0.1% aqueous phosphoric acid/acetonitrile; 43° C.; read-out: log P (pH 2.3)

SMILES | chromatographic logP
O=C(/C=C/c1cc(Br)cs1)c1c(F)cccc1F [XVIII-1, 3-(4-bromo-2-thienyl)-1-(2,6-difluorophenyl)-2-propen-1-one] | 3.78
Cc1ccsc1C1CCC(c2c(F)cccc2F)=N1 (stereo not drawn) [Example 4] | 2.34
Fc1cccc(F)c1C1=NC(c2ccc(-c3ccc(OC(F)(F)F)cc3)s2)CC1 (stereo not drawn) [Example 11, 5-(2,6-difluorophenyl)-2-{5-[4-(trifluoromethoxy)phenyl]-2-thienyl}-3,4-dihydro-2H-pyrrole] | 5.16
Fc1cccc(F)c1C1=NC(c2cc(-c3ccc(OC(F)(F)F)cc3)cs2)CC1 (stereo not drawn) [Example 14, 5-(2,6-difluorophenyl)-2-{4-[4-(trifluoromethoxy)phenyl]-2-thienyl}-3,4-dihydro-2H-pyrrole] | 4.66
Fc1cccc(F)c1C1=NC(c2ccc(-c3ccc(OC(F)(F)F)cc3)nc2)CC1 (stereo not drawn) [Example 10, 5-[5-(2,6-difluorophenyl)-3,4-dihydro-2H-pyrrol-2-yl]-2-[4-(trifluoromethoxy)phenyl]pyridine] | 3.5
Fc1cccc(F)c1C1=NC(c2ccc(Br)s2)CC1 (stereo not drawn) [Example 1, 2-(5-bromo-2-thienyl)-5-(2,6-difluorophenyl)-3,4-dihydro-2H-pyrrole] | 3.45
O=C(/C=C/c1ccc(Cl)nc1)c1c(F)cccc1F [XVIII-2, 3-(6-chloro-3-pyridinyl)-1-(2,6-difluorophenyl)-2-propen-1-one] | 2.87
Fc1cccc(F)c1C1=NC(c2cccs2)CC1 (stereo not drawn) [Example 2] | 1.95
Fc1cccc(F)c1C1=NC(c2sccc2Cl)CC1 (stereo not drawn) [Example 3] | 3.34
Fc1cccc(F)c1C1=NC(c2cc(-c3cccc(OC(F)(F)F)c3)cs2)CC1 (stereo not drawn) [Example 13, 5-(2.6-difluorophenyl)-2-{4-[3-(trifluoromethoxy)phenyl]-2-thienyl}-3,4-dihydro-2H-pyrrole] | 4.08
Fc1cccc(F)c1C1=NC(c2cc3ccccc3s2)CC1 (stereo not drawn) [Example 5] | 3.11
Fc1cccc(F)c1C1=NC(c2cc(Br)cs2)CC1 (stereo not drawn) [Example 8, 2-(4-bromo-2-thienyl)-5-(2,6-difluorophenyl)-3,4-dihydro-2H-pyrrole] | 3.41
Fc1cccc(F)c1C1=NC(c2ccc(-c3cccc(OC(F)(F)F)c3)s2)CC1 (stereo not drawn) [Example 12, 5-(2,6-difluorophenyl)-2-{5-[3-(trifluoromethoxy)phenyl]-2-thienyl}-3,4-dihydro-2H-pyrrole] | 4.84

Now from value to compound:

chromatographic logP | SMILES
4.88 | O=C(CCC(Cl)c1ccc(-c2ccc(OC(F)(F)F)cc2)nc1)c1c(F)cccc1F (stereo not drawn) [XV-3, 4-chloro-1-(2,6-difluorophenyl)4-{6-[4-(trifluoromethoxy)phenyl]-3-pyridinyl}-1-butanone]
1.33 | Cc1ccsc1C1CCC(=O)N1 (stereo not drawn) [XI-4]
1.41 | O=C1CCC(c2sccc2Cl)N1 (stereo not drawn) [XI-3]
3.03 | CC(C)(C)OC(=O)N1C(=O)CCC1c1ccc(Br)s1 (stereo not drawn) [IX-1, tert-butyl 2-(5-bromo-2-thienyl)-5-oxo-1-pyrrolidinecarboxylate]
3.33 | [N-]=[N+]=NC(CCC(=O)c1c(F)cccc1F)c1ccc(Cl)nc1 (stereo not drawn) [III-2, 4-azido-4-(6-chloro-3-pyridinyl)-1-(2,6-difluorophenyl)-1-butanone]
4.2 | CC(C)(C)OC(=O)NC(CCC(=O)c1c(F)cccc1F)c1cc2ccccc2s1 (stereo not drawn) [II-5]
1.03 | O=C1CCC(c2cccs2)N1 (stereo not drawn) [XI-2]
3 | [N-]=[N+]=NC(CCC(=O)c1c(F)cccc1F)c1cc(Br)cs1 (stereo not drawn) [III-1, 4-azido-4-(4-bromo-2-thienyl)-1-(2,6-difluorophenyl)-1-butanone]
3 | O=C(CCC(Cl)c1cc(Br)cs1)c1c(F)cccc1F (stereo not drawn) [XV-1, 4-(4-bromo-2-thienyl)4-chloro-1-(2,6-difluorophenyl)-1-butanone]
1.73 | O=C1CCC(c2cc3ccccc3s2)N1 (stereo not drawn) [XI-5]
4.4 | O=C(c1c(F)cccc1F)C1CC1c1ccc(-c2ccc(OC(F)(F)F)cc2)nc1 (stereo not drawn) [XVII-3, (2,6-difluorophenyl)(2-{6-[4-(trifluoromethoxy)phenyl]-3-pyridinyl}cyclopropyl)methanone]
1.62 | O=C1CCC(c2ccc(Br)s2)N1 (stereo not drawn) [XI-1, 5-(5-bromo-2-thienyl)-2-pyrrolidinone]
4.27 | Cc1ccsc1C(CCC(=O)c1c(F)cccc1F)NC(=O)OC(C)(C)C (stereo not drawn) [II-4]
2.65 | Cc1ccsc1C1CCC(=O)N1C(=O)OC(C)(C)C (stereo not drawn) [IX-4]
4.78 | [N-]=[N+]=NC(CCC(=O)c1c(F)cccc1F)c1ccc(-c2ccc(OC(F)(F)F)cc2)nc1 (stereo not drawn) [III-3, 4-azido-1-(2,6-difluorophenyl)-4-{6-[4-(trifluoromethoxy)phenyl]-3-pyridinyl}-1-butanone]
4.29 | CC(C)(C)OC(=O)NC(CCC(=O)c1c(F)cccc1F)c1ccc(Br)s1 (stereo not drawn) [II-1, tert-butyl 1-(5-bromo-2-thienyl)-4-(2,6-difluorophenyl)-4-oxobutylcarbamate]
3.37 | O=C(CCC(Cl)c1ccc(Cl)nc1)c1c(F)cccc1F (stereo not drawn) [XV-2, 4-(6-chloro-3-pyridinyl)-4-chloro-1-(2,6-difluorophenyl)-1-butanone]
3.03 | CC(C)(C)OC(=O)N1C(=O)CCC1c1cc2ccccc2s1 (stereo not drawn) [IX-5]
2.39 | CC(C)(C)OC(=O)N1C(=O)CCC1c1cccs1 (stereo not drawn) [IX-2]
2.92 | O=C(c1c(F)cccc1F)C1CC1c1ccc(Cl)nc1 (stereo not drawn) [XVII-2, [2-(6-chloro-3-pyridinyl)cyclopropyl](2,6-difluorophenyl)methanone]
4.14 | O=C(c1c(F)cccc1F)C1CC1c1cc(Br)cs1 (stereo not drawn) [XVII-1, [2-(4-bromo-2-thienyl)cyclopropyl](2,6-difluorophenyl)methanone]

same assay, conditions: reversed-phase C18 HPLC column; pH 7.5; HPLC, 0.01 molar aqueous phosphate buffer/acetonitrile; 43° C.; read-out: log P (pH 7.5)

SMILES | chromatographic logP
CC(C)(C)OC(=O)N1C(=O)CCC1c1sccc1Cl (stereo not drawn) [IX-3] | 2.77

system: Meloidogyne incognita; experiment: Meloidogyne Test; assay type: in vivo; conditions: 20 ppm, nematicidal action by formation of galls on lettuce roots
Experimental: • Solvent: 30 parts by weight of dimethylformamide • Emulsifier: 1 part by weight of alkylaryl polyglycol ether
To produce a suitable preparation of active compound, 1 part by weight of active compound is mixed with the stated amount of solvent and emulsifier, and the concentrated is diluted with water to the desired concentration.
Vessels are filled with sand, solution of active compound, Meloidogyne incognita egg/larvae suspension and lettuce seeds. The lettuce seeds germinate and the plants develop. On the roots galls are formed.
After the desired period of time, the nematicidal action is determined in % by the formation of galls. 100% means that no galls have been found; 0% means that the number of galls on the treated plants corresponds to that of the untreated control.

SMILES | Kill rate in % after 14 d [%]
Fc1cccc(F)c1C1=NC(c2ccc(-c3cccc(OC(F)(F)F)c3)s2)CC1 (stereo not drawn) [drawing 85] | 98

system: larvae of the mustard beetle (Phaedon cochleariae); experiment: Phaedon Larvae Test; assay type: in vivo; conditions: 1000 ppm, cabbage leaves dipped
Experimental: Phaedon Larvae Test • Solvent: 30 parts by weight of dimethylformamide • Emulsifier: 1 part by weight of alkylaryl polyglycol ether To produce a suitable preparation of active compound, 1 part by weight of active compound is mixed with the stated amount of solvent and emulsifier, and the concentrate is diluted with emulsifier-containing water to the desired concentration. Cabbage leaves (Brassica oleracea) are treated by being dipped into the preparation of active compound of the desired concentration and are populated with larvae of the mustard beetle (Phaedon cochleariae) while the leaves are still moist.

SMILES | Kill rate in % after 7 d [%]
Fc1cccc(F)c1C1=NC(c2cc(-c3ccc(OC(F)(F)F)cc3)cs2)CC1 (stereo not drawn) [drawing 89] | 100
Fc1cccc(F)c1C1=NC(c2ccc(-c3cccc(OC(F)(F)F)c3)s2)CC1 (stereo not drawn) [drawing 88] | 100
Cc1ccsc1C1CCC(c2c(F)cccc2F)=N1 (stereo not drawn) [drawing 87] | 100

system: caterpillars of the army worm (Spodoptera frugiperda); experiment: Spodoptera frugiperda Test; assay type: in vivo; conditions: 500 ppm, cabbage leaves dipped
Experimental: Spodoptera frugiperda Test
• Solvent: 30 parts by weight of dimethylformamide. • Emulsifier: 1 part by weight of alkylaryl polyglycol ether
To produce a suitable preparation of active compound, 1 part by weight of active compound is mixed with the stated amount of solvent and emulsifier, and the concentrate is diluted with emulsifier-containing water to the desired concentration.
Cabbage leaves (Brassica oleracea) are treated by being dipped into the preparation of active compound of the desired concentration and are populated with caterpillars of the army worm (Spodoptera frugiperda) while the leaves are still moist.
After the desired period of time, the kill in % is determined. 100% means that all caterpillars have been killed; 0% means that none of the caterpillars have been killed.

SMILES | Kill rate in % after 7 d [%]
Fc1cccc(F)c1C1=NC(c2ccc(Cl)nc2)CC1 (stereo not drawn) [drawing 96] | 100
Fc1cccc(F)c1C1=NC(c2cc3sc(-c4ccc(OC(F)(F)F)cc4)cc3s2)CC1 (stereo not drawn) [drawing 91] | 100

same assay, conditions: 1000 ppm, cabbage leaves dipped

SMILES | Kill rate in % after 7 d [%]
Fc1cccc(F)c1C1=NC(c2cc(-c3cccc(OC(F)(F)F)c3)cs2)CC1 (stereo not drawn) [drawing 94] | 100
Fc1cccc(F)c1C1=NC(c2ccc(-c3cccc(OC(F)(F)F)c3)s2)CC1 (stereo not drawn) [drawing 92] | 100
Fc1cccc(F)c1C1=NC(c2cc(Br)cs2)CC1 (stereo not drawn) [drawing 93] | 100
Fc1cccc(F)c1C1=NC(c2cc(-c3ccc(OC(F)(F)F)cc3)cs2)CC1 (stereo not drawn) [drawing 95] | 100

From patent US7186722B2, “2-heteroaryl-3,4-dihydro-2h-pyrrole derivatives and the use thereof as pesticides” (Bayer Cropscience AG, priority 2001, dated 2007)
